{"source": "ChEMBL document CHEMBL4011656", "about": "“Discovery and Optimization of Chromeno[2,3-c]pyrrol-9(2H)-ones as Novel Selective and Orally Bioavailable Phosphodiesterase 5 Inhibitors for the Treatment of Pulmonary Arterial Hypertension” (J Med Chem, 2017)", "key": {"[1]": {"experiment": "Cmax in Sprague-Dawley rat at 5 mg/kg, po by LC-MS/MS analysis", "assay_type": "ADME, organism-based", "parameters": "dose 5 mg/kg, route oral", "conditions": "in vivo"}, "[2]": {"experiment": "MRT (0 to t) in Sprague-Dawley rat at […], iv by LC-MS/MS analysis", "assay_type": "ADME, organism-based", "conditions": "in vivo"}, "[3]": {"target": "High affinity cGMP-specific 3',5'-cyclic phosphodiesterase 9A (Homo sapiens, UniProt O76083)", "sequence (O76083 whole entry, the tested form may be a part)": "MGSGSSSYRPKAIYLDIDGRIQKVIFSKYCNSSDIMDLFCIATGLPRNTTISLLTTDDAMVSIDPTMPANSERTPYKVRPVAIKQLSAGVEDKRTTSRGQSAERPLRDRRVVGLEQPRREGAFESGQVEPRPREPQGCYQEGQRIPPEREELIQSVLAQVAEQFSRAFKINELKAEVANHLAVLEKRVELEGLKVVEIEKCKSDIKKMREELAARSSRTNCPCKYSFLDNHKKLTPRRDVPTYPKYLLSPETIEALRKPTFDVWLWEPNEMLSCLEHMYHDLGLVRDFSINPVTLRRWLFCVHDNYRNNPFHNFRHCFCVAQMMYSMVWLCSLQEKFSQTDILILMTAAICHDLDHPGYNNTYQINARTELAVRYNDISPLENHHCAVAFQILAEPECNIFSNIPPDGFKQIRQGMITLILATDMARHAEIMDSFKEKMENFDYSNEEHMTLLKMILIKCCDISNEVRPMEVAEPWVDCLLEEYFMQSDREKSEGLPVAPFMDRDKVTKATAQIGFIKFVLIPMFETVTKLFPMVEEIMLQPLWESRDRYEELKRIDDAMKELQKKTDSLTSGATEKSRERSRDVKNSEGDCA", "experiment": "Inhibition of PDE9A2 (181 to 506 residues) (unknown origin) expressed in Escherichia coli BL21(DE3) using [3H]cGMP or [3H]cAMP as substrate after 15 mins by liquid scintillation counting method"}, "[4]": {"target": "High affinity 3',5'-cyclic-AMP phosphodiesterase 7A (Homo sapiens, UniProt Q13946)", "sequence (Q13946 whole entry, the tested form may be a part)": "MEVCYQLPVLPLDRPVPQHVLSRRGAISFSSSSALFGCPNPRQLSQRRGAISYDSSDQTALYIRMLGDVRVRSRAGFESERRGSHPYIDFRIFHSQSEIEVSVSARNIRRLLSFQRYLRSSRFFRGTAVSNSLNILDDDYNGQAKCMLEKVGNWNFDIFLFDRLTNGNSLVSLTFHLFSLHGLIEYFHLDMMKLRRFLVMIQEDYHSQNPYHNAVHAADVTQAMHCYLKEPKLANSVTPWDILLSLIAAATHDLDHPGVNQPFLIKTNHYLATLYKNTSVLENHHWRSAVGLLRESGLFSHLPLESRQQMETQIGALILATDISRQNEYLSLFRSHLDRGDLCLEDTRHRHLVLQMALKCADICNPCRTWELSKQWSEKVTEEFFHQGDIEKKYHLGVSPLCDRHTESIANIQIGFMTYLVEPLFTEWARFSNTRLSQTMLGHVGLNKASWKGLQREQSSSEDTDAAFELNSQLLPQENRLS", "experiment": "Inhibition of PDE7A1 (130 to 482 residues) (unknown origin) expressed in Escherichia coli BL21(DE3) using [3H]cGMP or [3H]cAMP as substrate after 15 mins by liquid scintillation counting method"}, "[5]": {"experiment": "Half life in rat liver microsomes at 0.5 uM", "assay_type": "ADME, microsome"}, "[6]": {"test_system": "Rattus norvegicus", "experiment": "Inhibition of hypertrophic response in Wistar rat model of monocrotaline pulmonary arterial hypertension assessed as reduction of MCT-induced increase in small pulmonary artery wall thickness at 5 mg/kg, po for 3 weeks", "assay_type": "functional, organism-based"}, "[7]": {"experiment": "Hepatic clearance in human microsomes at 0.5 uM", "assay_type": "ADME, microsome", "conditions": "liver microsomes"}, "[8]": {"experiment": "Hepatic clearance in rat liver microsomes at 0.5 uM", "assay_type": "ADME, microsome"}, "[9]": {"experiment": "Half life in Sprague-Dawley rat at 5 mg/kg, po by LC-MS/MS analysis", "assay_type": "ADME, organism-based", "conditions": "in vivo"}, "[10]": {"target": "Cytochrome P450 2C9 (Homo sapiens, UniProt P11712)", "sequence (P11712 whole entry)": "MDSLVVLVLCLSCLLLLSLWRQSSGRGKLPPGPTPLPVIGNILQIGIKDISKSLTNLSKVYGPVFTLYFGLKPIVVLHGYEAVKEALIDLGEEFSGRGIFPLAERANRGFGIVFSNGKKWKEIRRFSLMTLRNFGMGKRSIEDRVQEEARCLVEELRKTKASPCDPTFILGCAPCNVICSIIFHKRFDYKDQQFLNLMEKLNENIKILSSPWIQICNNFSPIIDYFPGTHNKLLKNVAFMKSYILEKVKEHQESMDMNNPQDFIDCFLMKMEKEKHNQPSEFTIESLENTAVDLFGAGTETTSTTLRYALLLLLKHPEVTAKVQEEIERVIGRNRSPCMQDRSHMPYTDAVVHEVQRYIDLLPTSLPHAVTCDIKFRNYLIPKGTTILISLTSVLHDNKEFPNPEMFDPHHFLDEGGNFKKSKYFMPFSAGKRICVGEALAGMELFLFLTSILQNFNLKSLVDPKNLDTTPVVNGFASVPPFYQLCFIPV", "experiment": "Inhibition of CYP2C9 in human microsomes in presence of NADPH", "assay_type": "ADME"}, "[11]": {"target": "T1, Cytochrome P450 1A2 (Homo sapiens, UniProt P05177)", "T1 sequence (P05177 whole entry)": "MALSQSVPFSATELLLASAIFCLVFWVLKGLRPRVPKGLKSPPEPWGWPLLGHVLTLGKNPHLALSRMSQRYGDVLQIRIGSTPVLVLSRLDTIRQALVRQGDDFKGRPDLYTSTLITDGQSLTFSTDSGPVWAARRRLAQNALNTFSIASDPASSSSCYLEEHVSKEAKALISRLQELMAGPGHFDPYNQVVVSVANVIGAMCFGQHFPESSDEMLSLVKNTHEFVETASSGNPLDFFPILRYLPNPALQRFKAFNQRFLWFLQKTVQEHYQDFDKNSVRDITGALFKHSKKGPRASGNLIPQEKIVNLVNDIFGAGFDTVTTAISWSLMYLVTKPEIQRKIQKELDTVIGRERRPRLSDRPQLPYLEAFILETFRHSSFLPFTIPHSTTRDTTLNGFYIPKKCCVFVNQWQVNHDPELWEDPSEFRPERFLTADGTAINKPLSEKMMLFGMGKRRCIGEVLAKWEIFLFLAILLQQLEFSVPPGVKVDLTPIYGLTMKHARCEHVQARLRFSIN", "experiment": "Inhibition of CYP1A2 in human microsomes in presence of NADPH", "assay_type": "ADME"}, "[12]": {"experiment": "Apparent clearance in rat liver microsomes at 0.5 uM", "assay_type": "ADME, microsome", "conditions": "read-out: CLH(app)"}, "[13]": {"target": "Cytochrome P450 2D6 (Homo sapiens, UniProt P10635)", "sequence (P10635 whole entry)": "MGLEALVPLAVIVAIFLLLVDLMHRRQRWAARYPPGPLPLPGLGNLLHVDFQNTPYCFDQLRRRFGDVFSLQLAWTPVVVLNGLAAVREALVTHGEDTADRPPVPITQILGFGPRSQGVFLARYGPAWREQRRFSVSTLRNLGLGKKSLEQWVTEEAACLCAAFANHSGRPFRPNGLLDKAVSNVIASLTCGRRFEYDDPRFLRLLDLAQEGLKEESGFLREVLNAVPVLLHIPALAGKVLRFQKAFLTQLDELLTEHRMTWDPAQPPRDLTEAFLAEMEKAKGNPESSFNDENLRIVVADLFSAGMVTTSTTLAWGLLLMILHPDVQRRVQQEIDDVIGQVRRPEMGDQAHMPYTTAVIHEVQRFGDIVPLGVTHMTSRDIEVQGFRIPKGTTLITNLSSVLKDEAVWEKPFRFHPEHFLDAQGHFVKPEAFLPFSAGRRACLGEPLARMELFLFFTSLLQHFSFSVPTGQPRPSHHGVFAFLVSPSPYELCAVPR", "experiment": "Inhibition of CYP2D6 in human microsomes in presence of NADPH", "assay_type": "ADME"}, "[14]": {"experiment": "Half life in human microsomes at 0.5 uM", "assay_type": "ADME, microsome", "conditions": "liver microsomes"}, "[15]": {"experiment": "Half life in Sprague-Dawley rat at […], iv by LC-MS/MS analysis", "assay_type": "ADME, organism-based", "conditions": "in vivo"}, "[16]": {"test_system": "Liver", "experiment": "Drug metabolism in human liver microsomes assessed as metabolic rate", "assay_type": "ADME, microsome"}, "[17]": {"experiment": "AUC (0 to t) in Sprague-Dawley rat at 5 mg/kg, po by LC-MS/MS analysis", "assay_type": "ADME, organism-based", "conditions": "in vivo"}}, "note": "Active and inactive are the calls of the source. No cut-off for these calls is given here.", "data": [{"smiles": "O=c1c2ccccc2oc2c(Cc3ccc4c(c3)OCO4)[nH]c(-c3nccs3)c12", "values": [{"measurement": "Cmax", "setting": "[1]", "value": 368, "unit": "ng/mL"}, {"measurement": "MRT last", "setting": "[2]", "value": 2.14, "unit": "h"}, {"measurement": "IC50", "setting": "[3]", "value": "> 10", "unit": "µM"}, {"measurement": "IC50", "setting": "[4]", "value": "> 10", "unit": "µM"}, {"measurement": "half-life at 0.5 µM", "setting": "[5]", "value": 24.7, "unit": "min"}, {"measurement": "inhibition", "setting": "[6]", "value": "Active"}, {"measurement": "CLhep predicted at 0.5 µM", "setting": "[7]", "value": 10.9, "unit": "mL/min/kg"}, {"measurement": "CLhep predicted at 0.5 µM", "setting": "[8]", "value": 35.6, "unit": "mL/min/kg"}, {"measurement": "half-life", "setting": "[9]", "value": 310, "unit": "min"}, {"measurement": "IC50", "setting": "[10]", "value": "> 25", "unit": "µM"}, {"measurement": "IC50", "setting": "[11]", "value": 7.6, "unit": "µM"}, {"measurement": "CLint scaled at 0.5 µM", "setting": "[12]", "value": 101, "unit": "mL/min/kg"}, {"measurement": "IC50", "setting": "[13]", "value": "> 25", "unit": "µM"}, {"measurement": "half-life at 0.5 µM", "setting": "[14]", "value": 56, "unit": "min"}, {"measurement": "half-life", "setting": "[15]", "value": 361, "unit": "min"}, {"measurement": "K", "setting": "[16]", "value": 0.0124}, {"measurement": "AUC(0-t)", "setting": "[17]", "value": 2000, "unit": "ng·h/mL"}]}]}
